# Test results taken from patent US20260209177A1, “1-DEOXYNOJIRIMYCIN DERIVATIVE AND USE THEREOF” (ZHEJIANG UNIVERSITY, priority 2022, published 2026).
# Tested on: HCM-iPSC-CMs
# Test: Patch clamp action potential of iPSC-CMs
# Type: cell-based, human
# Conditions: 30 μM, 48 hours, compared with DNJ-1, FIG. 21
# Description: TrypLE was added into induced cardiomyocytes, and after digestion at 37° C. for 3 min, an RPMI complete culture medium was added. The cells were centrifuged at a low speed, resuspended with RPMI/B27, and inoculated into an 8 mm Matrigel-coated slide at a ratio of 1:10. The cells were placed in an environment with 5% of CO2 for culture at 37° C. At 16 hours after the inoculation, the culture medium was replaced with a fresh RPMI/B27 culture medium, 30 μM small molecule drugs were added in an experimental group, and DMSO of an equal volume was added in a control group. At 48 hours after the culture, the action potential of the cardiomyocytes was recorded. Cell slides were removed, placed in a constant-temperature patch clamp bath at 37° C., and continuously perfused and rinsed with an extracellular fluid. Cell membranes of the cardiomyocytes were sucked and broken at a negative pressure, and the action potential of the cells capable of spontaneously pulsating was recorded. Data were collected and analyzed through Patch Master (HEKA), Fit Master (HEKA), Igor Pro (Wavemetrics) and Origin 6.1 (Microcal) software.
compound,measurement,value
"CC(C)(C)C(=O)OC[C@H]1NC[C@H](O)[C@@H](O)[C@@H]1O [DNJ-5a, ((2R,3R,4R,5S)-3,4,5-trihydroxypiperidin-2-yl)methyl pivalate]",proportion of electrophysiologically abnormal cells (action potential),improve the proportion of electrophysiologically abnormal cells in HCM-iPSC-CMs more significantly
